Measured values as given in ChEMBL document CHEMBL1833882, “Preparation and antibacterial evaluation of decarboxylated fluoroquinolones” (2011).
Converted amounts (≈) assume the structure as drawn.

What was measured:
Assay type in all cases: functional
Staphylococcus aureus [1] = test: Antibacterial activity against methicillin-resistant Staphylococcus aureus 1094 after 18 hrs by broth dilution method; details: Staphylococcus aureus, 1094, 18 h
Pseudomonas aeruginosa [2] = test: Antibacterial activity against Pseudomonas aeruginosa PAO1 ATCC BAA-47 after 18 hrs by broth dilution method; details: PAO1 ATCC BAA-47, 18 h
Enterococcus faecalis [3] = test: Antibacterial activity against Enterococcus faecalis ATCC 29212 after 18 hrs by broth dilution method; details: ATCC 29212, 18 h
Klebsiella pneumoniae [4] = test: Antibacterial activity against Klebsiella pneumoniae ATCC 13882 after 18 hrs by broth dilution method; details: ATCC 13882, 18 h
Escherichia coli [5] = test: Antibacterial activity against TolC deficient Escherichia coli 701 after 18 hrs by broth dilution method; details: Escherichia coli, 701, 18 h
Pseudomonas aeruginosa [6] = test: Antibacterial activity against Pseudomonas aeruginosa PAO1 harboring oprM deltamexAB after 18 hrs by broth dilution method; details: PAO1, 18 h
Burkholderia cepacia [7] = test: Antibacterial activity against Burkholderia cepacia ATCC 39277 after 18 hrs by broth dilution method; details: ATCC 39277, 18 h
Enterococcus faecalis [8] = test: Antibacterial activity against vancomycin-resistant Enterococcus faecalis ATCC 51575 after 18 hrs by broth dilution method; details: ATCC 51575, 18 h
Klebsiella pneumoniae [9] = test: Antibacterial activity against Klebsiella pneumoniae ATCC 700603 after 18 hrs by broth dilution method; details: ATCC 700603, 18 h
Escherichia coli [10] = test: Antibacterial activity against Escherichia coli 700 expressing TolC after 18 hrs by broth dilution method; details: Escherichia coli, 700, 18 h
[11] = tested on: Stenotrophomonas maltophilia; test: Antibacterial activity against Stenotrophomonas maltophilia ATCC 13637 after 18 hrs by broth dilution method; details: ATCC 13637, 18 h
Bacillus subtilis = test: Antibacterial activity against Bacillus subtilis BD54 after 18 hrs by broth dilution method; details: BD54, 18 h
Burkholderia cepacia [12] = test: Antibacterial activity against Burkholderia cepacia ATCC 55792 after 18 hrs by broth dilution method; details: ATCC 55792, 18 h
Staphylococcus aureus [13] = test: Antibacterial activity against Staphylococcus aureus ATCC 25923 after 18 hrs by broth dilution method; details: ATCC 25923, 18 h
Bacillus anthracis = test: Antibacterial activity against Bacillus anthracis Sterne after 18 hrs by broth dilution method
Acinetobacter baumannii = test: Antibacterial activity against Acinetobacter baumannii ATCC 19606 after 18 hrs by broth dilution method; details: ATCC 19606 = CIP 70.34 = JCM 6841, 18 h
Escherichia coli [14] = test: Antibacterial activity against Escherichia coli ATCC 29425 after 18 hrs by broth dilution method; details: ATCC 29425, 18 h
Escherichia coli [15] = test: Antibacterial activity against Escherichia coli ATCC 29425 after 16 to 18 hrs by agar dilution method
Enterococcus faecalis [16] = test: Antibacterial activity against Enterococcus faecalis ATCC 29212 after 16 to 18 hrs by agar dilution method
Staphylococcus aureus [17] = test: Antibacterial activity against Staphylococcus aureus ATCC 25923 after 16 to 18 hrs by agar dilution method

SMILES	MIC (Staphylococcus aureus [1])	MIC (Pseudomonas aeruginosa [2])	MIC (Enterococcus faecalis [3])	MIC (Klebsiella pneumoniae [4])	MIC (Escherichia coli [5])	MIC (Pseudomonas aeruginosa [6])	MIC (Burkholderia cepacia [7])	MIC (Enterococcus faecalis [8])	MIC (Klebsiella pneumoniae [9])	MIC (Escherichia coli [10])	MIC [11]	MIC (Bacillus subtilis)	MIC (Burkholderia cepacia [12])	MIC (Staphylococcus aureus [13])	MIC (Bacillus anthracis)	MIC (Acinetobacter baumannii)	MIC (Escherichia coli [14])	MIC (Escherichia coli [15])	MIC (Enterococcus faecalis [16])	MIC (Staphylococcus aureus [17])
CC1CN(c2c(F)cc3c(=O)c(C(=O)O)cn(C4CC4)c3c2F)CCN1 (stereo not drawn)	10 µg/mL (≈ 27.5 µM)	1.25 µg/mL (≈ 3.44 µM)	0.625 µg/mL (≈ 1.72 µM)	≤ 0.02 µg/mL	≤ 0.02 µg/mL	0.039 µg/mL (≈ 0.107 µM)	0.078 µg/mL (≈ 0.215 µM)	0.625 µg/mL (≈ 1.72 µM)	0.313 µg/mL (≈ 0.861 µM)	≤ 0.02 µg/mL	0.039 µg/mL (≈ 0.107 µM)	0.078 µg/mL (≈ 0.215 µM)	0.235 µg/mL (≈ 0.647 µM)	0.235 µg/mL (≈ 0.647 µM)	0.078 µg/mL (≈ 0.215 µM)	0.313 µg/mL (≈ 0.861 µM)	–	–	–	–
O=CN1CCN(c2cc3c(cc2F)c(=O)ccn3C2CC2)CC1	> 80 µg/mL	> 80 µg/mL	> 80 µg/mL	> 80 µg/mL	> 80 µg/mL	> 80 µg/mL	> 80 µg/mL	> 80 µg/mL	> 80 µg/mL	> 80 µg/mL	> 80 µg/mL	> 80 µg/mL	> 80 µg/mL	> 80 µg/mL	> 80 µg/mL	> 80 µg/mL	> 80 µg/mL	> 64 µg/mL	> 64 µg/mL	> 64 µg/mL
O=CN1CCN(c2cc3c(cc2F)c(=O)c(C(=O)O)cn3C2CC2)CC1	40 µg/mL (≈ 111 µM)	10 µg/mL (≈ 27.8 µM)	0.625 µg/mL (≈ 1.74 µM)	0.156 µg/mL (≈ 0.434 µM)	≤ 0.078 µg/mL	≤ 0.078 µg/mL	0.313 µg/mL (≈ 0.871 µM)	2.5 µg/mL (≈ 6.96 µM)	5 µg/mL (≈ 13.9 µM)	0.313 µg/mL (≈ 0.871 µM)	1.25 µg/mL (≈ 3.48 µM)	0.117 µg/mL (≈ 0.326 µM)	1.25 µg/mL (≈ 3.48 µM)	0.313 µg/mL (≈ 0.871 µM)	0.235 µg/mL (≈ 0.654 µM)	2.5 µg/mL (≈ 6.96 µM)	0.5 µg/mL (≈ 1.39 µM)	0.5 µg/mL (≈ 1.39 µM)	1 µg/mL (≈ 2.78 µM)	0.5 µg/mL (≈ 1.39 µM)
CCn1ccc(=O)c2cc(F)c(N3CCN(C=O)CC3)cc21	> 80 µg/mL	> 80 µg/mL	> 80 µg/mL	> 80 µg/mL	40 µg/mL (≈ 132 µM)	80 µg/mL (≈ 264 µM)	> 80 µg/mL	> 80 µg/mL	> 80 µg/mL	40 µg/mL (≈ 132 µM)	> 80 µg/mL	> 80 µg/mL	> 80 µg/mL	> 80 µg/mL	> 80 µg/mL	> 80 µg/mL	40 µg/mL (≈ 132 µM)	> 64 µg/mL	> 64 µg/mL	> 64 µg/mL
CCN1CCN(c2cc3c(cc2F)c(=O)ccn3C2CC2)CC1	> 80 µg/mL	> 80 µg/mL	> 80 µg/mL	> 80 µg/mL	> 80 µg/mL	> 80 µg/mL	> 80 µg/mL	> 80 µg/mL	> 80 µg/mL	> 80 µg/mL	> 80 µg/mL	> 80 µg/mL	> 80 µg/mL	> 80 µg/mL	> 80 µg/mL	> 80 µg/mL	> 80 µg/mL	> 64 µg/mL	> 64 µg/mL	> 64 µg/mL
CC1CN(c2c(F)cc3c(=O)ccn(C4CC4)c3c2F)CCN1 (stereo not drawn)	> 80 µg/mL	> 80 µg/mL	> 80 µg/mL	> 80 µg/mL	15 µg/mL (≈ 47 µM)	40 µg/mL (≈ 125 µM)	> 80 µg/mL	> 80 µg/mL	> 80 µg/mL	> 80 µg/mL	> 80 µg/mL	> 80 µg/mL	> 80 µg/mL	> 80 µg/mL	80 µg/mL (≈ 251 µM)	> 80 µg/mL	> 80 µg/mL	> 64 µg/mL	> 64 µg/mL	> 64 µg/mL
CCn1ccc(=O)c2cc(F)c(N3CCNCC3)cc21	> 80 µg/mL	> 80 µg/mL	> 80 µg/mL	40 µg/mL (≈ 145 µM)	5 µg/mL (≈ 18.2 µM)	40 µg/mL (≈ 145 µM)	> 80 µg/mL	> 80 µg/mL	> 80 µg/mL	40 µg/mL (≈ 145 µM)	> 80 µg/mL	80 µg/mL (≈ 291 µM)	> 80 µg/mL	> 80 µg/mL	80 µg/mL (≈ 291 µM)	> 80 µg/mL	40 µg/mL (≈ 145 µM)	64 µg/mL (≈ 232 µM)	32 µg/mL (≈ 116 µM)	> 64 µg/mL
O=c1ccn(C2CC2)c2cc(N3CCNCC3)c(F)cc12	> 80 µg/mL	> 80 µg/mL	> 80 µg/mL	> 80 µg/mL	> 80 µg/mL	80 µg/mL (≈ 278 µM)	> 80 µg/mL	> 80 µg/mL	> 80 µg/mL	> 80 µg/mL	> 80 µg/mL	> 80 µg/mL	> 80 µg/mL	> 80 µg/mL	> 80 µg/mL	> 80 µg/mL	> 80 µg/mL	> 64 µg/mL	> 64 µg/mL	> 64 µg/mL
O=C(O)c1cn(C2CC2)c2cc(N3CCNCC3)c(F)cc2c1=O [CIPROFLOXACIN]	20 µg/mL (≈ 60.4 µM)	0.313 µg/mL (≈ 0.945 µM)	1.25 µg/mL (≈ 3.77 µM)	0.039 µg/mL (≈ 0.118 µM)	–	0.02 µg/mL (≈ 0.0604 µM)	0.078 µg/mL (≈ 0.235 µM)	0.625 µg/mL (≈ 1.89 µM)	0.313 µg/mL (≈ 0.945 µM)	–	0.156 µg/mL (≈ 0.471 µM)	0.156 µg/mL (≈ 0.471 µM)	0.625 µg/mL (≈ 1.89 µM)	0.625 µg/mL (≈ 1.89 µM)	–	1.25 µg/mL (≈ 3.77 µM)	< 0.02 µg/mL	< 0.06 µg/mL	0.5 µg/mL (≈ 1.51 µM)	0.5 µg/mL (≈ 1.51 µM)
CCN1CCN(c2cc3c(cc2F)c(=O)c(C(=O)O)cn3C2CC2)CC1 [ENROFLOXACIN]	5 µg/mL (≈ 13.9 µM)	4.4 µg/mL (≈ 12.2 µM)	0.625 µg/mL (≈ 1.74 µM)	0.098 µg/mL (≈ 0.273 µM)	≤ 0.01 µg/mL	0.078 µg/mL (≈ 0.217 µM)	0.098 µg/mL (≈ 0.273 µM)	0.625 µg/mL (≈ 1.74 µM)	0.625 µg/mL (≈ 1.74 µM)	0.049 µg/mL (≈ 0.136 µM)	0.098 µg/mL (≈ 0.273 µM)	0.078 µg/mL (≈ 0.217 µM)	0.625 µg/mL (≈ 1.74 µM)	0.156 µg/mL (≈ 0.434 µM)	0.078 µg/mL (≈ 0.217 µM)	0.235 µg/mL (≈ 0.654 µM)	0.05 µg/mL (≈ 0.139 µM)	< 0.06 µg/mL	0.13 µg/mL (≈ 0.362 µM)	0.13 µg/mL (≈ 0.362 µM)
CCn1cc(C(=O)O)c(=O)c2cc(F)c(N3CCNCC3)cc21 [NORFLOXACIN]	40 µg/mL (≈ 125 µM)	1.25 µg/mL (≈ 3.91 µM)	2.5 µg/mL (≈ 7.83 µM)	0.117 µg/mL (≈ 0.366 µM)	0.039 µg/mL (≈ 0.122 µM)	0.039 µg/mL (≈ 0.122 µM)	1.25 µg/mL (≈ 3.91 µM)	2.5 µg/mL (≈ 7.83 µM)	0.938 µg/mL (≈ 2.94 µM)	0.059 µg/mL (≈ 0.185 µM)	1.25 µg/mL (≈ 3.91 µM)	0.625 µg/mL (≈ 1.96 µM)	2.5 µg/mL (≈ 7.83 µM)	1.25 µg/mL (≈ 3.91 µM)	0.313 µg/mL (≈ 0.98 µM)	10 µg/mL (≈ 31.3 µM)	0.12 µg/mL (≈ 0.376 µM)	0.01 µg/mL (≈ 0.0313 µM)	2 µg/mL (≈ 6.26 µM)	2 µg/mL (≈ 6.26 µM)
